Source: US12673017B2, “Ultra-mild, concentrated and self-preserving cleansing compositions for personal care” (GALAXY SURFACTANTS LTD, priority 2022, dated 2026)

Test system: blood capillaries of chorioallantoic membrane of hen's fertilized egg
Assay: HET-CAM test (hen's egg test on chorioallantoic membrane, Invittox protocol 47)
Parameters: species or system White Leghorn chicken
Conditions: for Irritancy Score by HET-CAM: Table 2, individual surfactants
Source text: The HET-CAM (Hen's egg test on chorioallantoic membrane, as per Invittox Protocol 47) method. The hen's egg test on Chorioallantoic Membrane (HET-CAM) is an alternative in-vitro method developed by Luepke et al. to substitute Draize test that was done on rabbits. (Luepke N. Hen's egg chorioallantoic membrane test for irritation potential. Food Chem Toxicol. 1985; 23(2):287-291). It is subsequently modified by […] et al. ([…] Test. The […]. Databank of in-vitro techniques. […] Subsequently, the methodology is successfully adopted to personal care by […] et al. ([…], Bracher M, Courtellemont P, de Silva O. The HET-CAM, a useful in vitro assay for assessing the eye irritation properties of cosmetic formulations and ingredients. Toxicol. […] The egg's shell is opened at the side of the air chamber, and the egg white membrane is removed while avoiding any damage to the fine blood vessels. […] Based on Irritation score the damaging potential is classified into four categories as described in the table 1 below. White Leghorn chicken eggs (up to 9 days of incubation) are candled to ensure that all are viable. Egg shell is marked using a rotating dentist-sawblade and the section of the shell is removed. The membrane is carefully moistened with 0.9% NaCl solution and the eggs are replaced in incubator until ready for assaying. […] Onset of haemorrhage (Bleedings), vascular lysis (Blood vessel disintegration), coagulation (protein denaturation intra and extra vascular) is monitored. The onset of the biological endpoints is recorded in number of seconds and the irritancy scores are calculated as per formula prescribed in the protocol document. The irritancy score is broadly divided into four different categories of damaging potential as described in Table 1.

Molecule: CCCCCCCCCCCCOS(=O)(=O)[O-].[Na+] [Sodium lauryl sulphate]
- Irritancy score (IS) by HET-CAM: around 16
- Irritancy Score by HET-CAM (1% test solution): 16.7
- C, calculated coagulation part of IS (Table 3b): 5.0
- H, calculated haemorrhage part of IS (Table 3b): 4.5
- IS (irritation score) (Table 3b): 15.1
- L, calculated lysis part of IS (Table 3b): 5.6
- C, time for appearance of coagulation (Table 3b, 1% test solution): 134 s
- H, time for appearance of haemorrhage (Table 3b, 1% test solution): 31 s
- L, time for appearance of lysis (Table 3b, 1% test solution): 63 s
- C, time for appearance of coagulation (Table 6a): 134 s
- Calculation C (Table 6a): 5.0
- Calculation H (Table 6a): 4.5
- Calculation L (Table 6a): 5.6
- H, time for appearance of haemorrhage (Table 6a): 31 s
- IS (irritation score) (Table 6a): 15.1
- L, time for appearance of lysis (Table 6a): 63 s
- C, calculated coagulation part of score (Table 12): 5.0
- C, time for appearance of coagulation (Table 12): 134 s
- H, calculated haemorrhage part of score (Table 12): 4.5
- H, time for appearance of haemorrhage (Table 12): 31 s
- Irritancy score (Table 12): 15.1
- L, calculated lysis part of score (Table 12): 5.6
- L, time for appearance of lysis (Table 12): 63 s

Molecule: Caprylyl/capryl glucoside
- Irritancy Score by HET-CAM (1% test solution): 8

Molecule: Cocamido propyl sulphobetaine
- Irritancy Score by HET-CAM (1% test solution): 10

Molecule: Cocamidopropyl PG dimonium chloride phosphate
- Irritancy Score by HET-CAM (1% test solution): 7.5

Molecule: Cocomido propyl betaine
- Irritancy Score by HET-CAM (1% test solution): 10.8

Molecule: Lauramido propyl PG dimonium chloride phosphate
- Irritancy Score by HET-CAM (1% test solution): 8.0

Molecule: Lauryl glucoside
- Irritancy Score by HET-CAM (1% test solution): 6.5
